Target: T1, human recombinant aromatase (Homo sapiens, UniProt P11511)
T1 sequence (P11511 1-503): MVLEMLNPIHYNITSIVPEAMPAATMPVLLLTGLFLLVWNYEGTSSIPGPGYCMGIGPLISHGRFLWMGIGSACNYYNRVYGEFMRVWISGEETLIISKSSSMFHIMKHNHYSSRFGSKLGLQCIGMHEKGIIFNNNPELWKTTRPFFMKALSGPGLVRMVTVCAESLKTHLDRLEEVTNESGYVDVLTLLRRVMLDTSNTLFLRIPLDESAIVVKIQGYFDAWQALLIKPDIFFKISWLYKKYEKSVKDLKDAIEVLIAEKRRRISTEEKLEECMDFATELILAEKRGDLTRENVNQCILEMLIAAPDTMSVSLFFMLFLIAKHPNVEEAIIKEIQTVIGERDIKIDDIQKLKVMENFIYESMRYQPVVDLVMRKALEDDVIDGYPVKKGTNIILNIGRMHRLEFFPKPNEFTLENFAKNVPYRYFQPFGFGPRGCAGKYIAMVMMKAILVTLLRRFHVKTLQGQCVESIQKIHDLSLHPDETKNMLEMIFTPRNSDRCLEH
Experiment: Inhibitory assay against human recombinant aromatase (Human CYP19 + P450 Reductase SUPERSOMES, dibenzylfluorescein)
Assay type: biochemical
Details: for aromatase inhibitory activity (in words): tested at 10, 30 and 100 µM (4, 6: 1, 3 and 10 µM); for IC50: three determinations
Excerpt: Each value represents the mean ± the standard error (S.E.) of three determinations.
Dibenzylfluorescein (DBF) and Human CYP19 + P450 Reductase SUPERSOMES (human recombinant aromatase) were obtained from BD Biosciences (Heidelberg, Germany). The physical data were obtained by the following instruments: a Yanagimoto micro-melting point apparatus for melting points (uncorrected); a JASCO DIP-1000 digital polarimeter for Optical rotations; a Perkin-Elmer 1720X FTIR spectrophotometer for IR spectra; an Agilent-NMR-vnmrs600 for the ^1H and ^13C NMR spectra (^1H: 600 MHz; ^13C: 150 MHz) in CDCl3 with tetramethylsilane as the internal standard; a Hitachi M-4000H double-focusing mass spectrometer for EIMS (70 eV). Column chromatography was carried out by Silica gel (70–230 mesh, Merck, Darmstadt, Germany) and silica gel 60 (230–400 mesh, Nacalai Tesque, Inc., Kyoto, Japan). HPLC was performed by the following systems; system I: Cosmosil 5SL-II column (25 cm × 20 mm i.d.) (Nacalai Tesque, Inc.), hexane/EtOAc (5:1), 8.0 mL/min, 35 °C; system II: Shimpack PREP-ODS (25 cm × 20 mm i.d.) (Shimadzu corp., Kyoto, Japan), MeOH, 8.0 mL/min, 35 °C; system III: Cosmosil 5C18-MS-II column (25 cm × 20 mm i.d.) (Nacalai Tesque, Inc.), MeOH/H2O (95:5), flow rate, 4.0 mL/min, 35 °C; system IV: Cosmosil 5C18-MS-II column, MeOH/H2O (9:1), 4.0 mL/min, 35 °C.
Inhibitory assay against human recombinant aromatase was performed as described previously.

Compound	aromatase inhibitory activity (in words)	IC50
5α,6α-epoxyergost-8(14)-ene-3β,7α-diol [Compound 2]	weakly inhibited aromatase	–
CC(C)[C@@H](C)/C=C/[C@@H](C)[C@H]1CC=C2C3=C(CC[C@@]21C)[C@@]1(C)CC[C@H](O)C[C@@]12O[C@H]2[C@@H]3O [Compound 1, (22E)-5α,6α-epoxyergosta-8,14,22-triene-3β,7β-diol]	–	17.3 µM
CC(C)[C@@H](C)/C=C/[C@@H](C)[C@H]1CC[C@H]2C3=CCC4C[C@@H](O)CC[C@]4(C)[C@H]3CC[C@]12C (stereo partly drawn) [Compound 3, (22E)-Ergosta-7,22-dien-3β-ol]	–	66.1 µM
CC(C)[C@@H](C)/C=C/[C@@H](C)[C@H]1CC[C@H]2C3=CC=C4C[C@@H](O)CC[C@]4(C)[C@H]3CC[C@]12C [Compound 4, (22E)-ergosta-5,7,22-trien-3β-ol]	comparable aromatase inhibitory activities to aminoglutethimide	8.1 µM
CC(C)[C@@H](C)/C=C/[C@@H](C)[C@H]1CC[C@H]2c3ccc4c(c3CC[C@]12C)CC[C@H](O)C4 [Compound 5, (22E)-19-norergosta-5,7,9,22-tetraen-3β-ol]	–	33.8 µM
CO[C@@H]1C=C2[C@@H]3CC[C@H]([C@H](C)/C=C/[C@H](C)C(C)C)[C@@]3(C)CC[C@@H]2[C@@]2(C)CC[C@H](O)C[C@]12O [Compound 6, (22E)-6β-methoxyergosta-7,22-diene-3β,5α-diol]	comparable aromatase inhibitory activities to aminoglutethimide	2.8 µM
CC(C)[C@@H](C)/C=C/[C@@H](C)[C@H]1CC[C@H]2C3=CC(=O)[C@@]4(O)C[C@@H](O)CC[C@]4(C)[C@@]3(O)CC[C@]12C [Compound 7, (22E)-3β,5α,9α-trihydroxyergosta-7,22-dien-6-one]	weakly inhibited aromatase	> 100 µM
CC(C)[C@@H](C)/C=C/[C@@H](C)[C@H]1CC[C@H]2C3=CC(=O)[C@@]4(O)C[C@@H](O)CC[C@]4(C)[C@H]3CC[C@]12C [Compound 8, (22E)-3β,5α-dihydroxyergosta-7,22-dien-6-one]	weakly inhibited aromatase	> 100 µM
CC(C)[C@@H](C)/C=C/[C@@H](C)[C@H]1CC[C@@H]2[C@]1(C)CC[C@H]1[C@]23C=C[C@]2(C[C@@H](O)CC[C@]12C)OO3 [Compound 9, ergosterol peroxide]	weakly inhibited aromatase	> 100 µM
CC(C)[C@@H](C)/C=C/[C@@H](C)[C@H]1CC[C@@H]2[C@]1(C)CC=C1[C@]23C=C[C@]2(C[C@@H](O)CC[C@]12C)OO3 [Compound 10, 9,11-dehydroergosterol peroxide]	–	32.6 µM

Source: publication PMC5713445, “Ergostane-Type Sterols from King Trumpet Mushroom (Pleurotus eryngii) and Their Inhibitory Effects on Aromatase” (International Journal of Molecular Sciences, 2017)
